Laboratory results as given in paper PMC5291098, “Molecular mutagenesis of ppGpp: turning a RelA activator into an inhibitor” (Scientific Reports, 2017).
Values joined by “and” are separate entries in the source; they are usually repeats but may differ in a detail not shown here. Identical values can stand only once. “Also recorded” adds a separate entry of the source. Like-named read-outs stand apart in the source and are kept apart here. Blank lines part the entries; values can stand above or below the molecule they belong to.

How the values were obtained:
[1] = target: T1, E. coli RelA (Escherichia coli, UniProt P0AG20); set-up: method as in PMID 20483622; conditions: read-out: IC50 / concentration for 50% inhibition of E. coli RelA; in the test tube; cited from earlier work
T1 construct: made in house
T1 sequence (P0AG20 whole entry): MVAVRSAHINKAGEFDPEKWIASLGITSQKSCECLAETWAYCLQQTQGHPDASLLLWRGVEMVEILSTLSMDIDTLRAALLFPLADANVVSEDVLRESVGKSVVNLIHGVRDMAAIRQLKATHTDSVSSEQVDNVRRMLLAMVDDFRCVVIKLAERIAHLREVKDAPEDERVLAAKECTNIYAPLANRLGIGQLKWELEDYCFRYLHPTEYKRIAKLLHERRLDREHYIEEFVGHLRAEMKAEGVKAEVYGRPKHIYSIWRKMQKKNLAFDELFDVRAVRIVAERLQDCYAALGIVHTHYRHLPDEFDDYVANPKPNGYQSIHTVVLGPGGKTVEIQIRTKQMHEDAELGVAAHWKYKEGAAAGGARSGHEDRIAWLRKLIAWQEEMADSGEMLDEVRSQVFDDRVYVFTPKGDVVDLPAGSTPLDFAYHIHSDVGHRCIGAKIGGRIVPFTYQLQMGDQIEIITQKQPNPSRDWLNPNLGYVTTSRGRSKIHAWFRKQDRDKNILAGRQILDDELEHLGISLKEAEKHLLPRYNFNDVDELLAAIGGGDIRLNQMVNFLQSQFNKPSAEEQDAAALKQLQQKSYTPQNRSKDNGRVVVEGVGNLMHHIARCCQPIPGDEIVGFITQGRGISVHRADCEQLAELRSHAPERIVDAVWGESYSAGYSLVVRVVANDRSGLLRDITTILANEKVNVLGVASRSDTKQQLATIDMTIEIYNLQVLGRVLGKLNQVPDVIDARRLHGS

[2] = tested on: ΔywaCΔyjbM B. subtilis; assay: Growth of ΔywaCΔyjbM B. subtilis in valine drop-out S7 medium (functional test for Rel inhibition); format: cell-based, Bacillus subtilis; conditions: up to 1 mM (0 to 1000 µM)
From the text: Finally, we tested the three of our most promising inhibitors (DR-4250, DR-M014 and DR-5163) for RSH inhibition in bacterial culture. For this we used the Gram-positive bacterium B. subtilis due to its better uptake of compounds as compared to Gram-negative species such as E. coli[50]. The functional test for RSH inhibition relied on the auxotrophy of (p)ppGpp-deficient (ppGpp^0) B. subtilis for methionine and branched-chain amino acids valine, leucine and isoleucine. The B. subtilis RSH repertoire consists of one multi-domain ribosome-associated enzyme Rel and two SAS, YwaC and YjbM[3][52]. Because the SAS RelQEf is refractory to inhibition by our test compounds (Supplementary Figure 2), we used a B. subtilis strain lacking SASs (ΔywaCΔyjbM), in which the sole source of (p)ppGpp is Rel[53]. Defined S7 medium[54] lacking valine supports the growth of ΔywaCΔyjbM B. subtilis, but not the ppGpp^0 stain (Supplementary Figure 5). […] This is indicative of the test compounds failing to inhibit Rel and thereby rendering the strain phenotypically ppGpp^0 (Supplementary Figure 5). A lack of cellular uptake is a likely explanation. […]
Growth assays with Bacillus subtilis BSB1 wild type strain
SAS deletion and ppGpp0 strain of B. subtilis5 were grown in S7 liquid medium6 except for amino acid requirements, which were met as described elsewhere 7. On 96-well plate, 90 µl of B subtilis starter culture was mixed with 10 µL of compound dilution (in 5 mM Tris pH 7.2) so that final OD600 was 0.025 (l = 1 cm).
Following incubation was without shaking at 37°C and growth was monitored with Tecan Infinite M200 at OD600 (raw OD600 values are reported). B. subtilis starter culture was prepared as follows. Late exponential phase cells in S7, with full set of amino acids, were diluted ≈10-fold in S7 lacking either valine or lysine so that, after addition of 8% DMSO, OD600 was 0.25. Next, cell suspensions were aliquoted, frozen in liquid nitrogen, and stored at -80°C. Just before the experiment, cells were thawed on ice and appropriate amount of media was […]
DywaC DyjbM BSB1 B. subtilis ppGpp0. BSB1 B. subtilis wild type strain as grown on S7 synthetic media8 drop-out media lacking valine which abolishes the growth of ppGpp0 (Drel DywaC DyjbM) strain due to valine auxotrophy (dashed line). […]
inhibit the Rel and render the strain ppGpp0.

[3] = tested on: T2, E. coli EF-G; format: biochemical
T2 construct: made in house
Experimental: (§1) Thin layer chromatography (TLC) analysis of nucleotide mixtures
Both EF-G GTPase reaction and ppGpp synthesis by RelA were followed by TLC analysis followed by scintillation counting according to Mechold and colleagues, with modifications1. Time points from the reaction mixtures (5 μl, see below for details) were quenched by addition 4 μl 70% formic acid supplemented with a cold nucleotide standard used for UV-shadowing (10 mM GDP and 10 mM GTP) and spotted on PEI-TLC plates (Macherey-Nagel). TLC was run in buffer, plates dried, cut into sections guided by UV-shadowing and 3H radioactivity was quantified by scintillation counting in Optisafe-3 (Fisher) scintillation cocktail on Perkin Elmer Tricarb 2810TR counter. Conversion of substrate to product was quantified as described in Shyp et al. (2012)2. […]
GTPase assays with E. coli EF-G
The reaction mixture contained 0.5 μM 70S, 0.1 μM EF-G, in HEPES:Polymix (25 mM Hepes 7.5/ 1 mM DTT / 5 mM Mg2+) pre-incubated for 2 minutes at 37°C prior to addition of 300 μM [3H]GTP substrate (Hartman), after which time points (5 μl) taken, quenched with formic acid and analyzed by TLC (see above). […]

[4] = target: T3, E. faecalis SAS RelQ (RelQEf) (Enterococcus faecalis, UniProt Q830U9); assay: Inhibition of E. faecalis SAS RelQ ppGpp synthesis; format: biochemical; conditions: concentrations up to 1 mM
T3 sequence (Q830U9 entry or part of it): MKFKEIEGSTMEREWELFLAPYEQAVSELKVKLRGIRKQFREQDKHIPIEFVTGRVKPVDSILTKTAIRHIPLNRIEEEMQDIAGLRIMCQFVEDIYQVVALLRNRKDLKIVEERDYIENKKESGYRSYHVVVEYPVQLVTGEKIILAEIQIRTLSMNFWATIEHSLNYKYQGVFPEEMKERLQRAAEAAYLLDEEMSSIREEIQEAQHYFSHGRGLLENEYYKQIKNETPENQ
From the text: In E. coli, ppGpp is synthesized by the multi-domain RSHs RelA and SpoT, however, numerous single-domain RSHs – Small Alarmone Synthetases (SAS) – are widely distributed across bacterial taxa[3]. […] Therefore we tested the effects of DR-4250, DR-M014 and DR-5163 on RelQEf activity (Supplementary Figure 2).
(§2) Detailed description of experimental procedures can be found in Supplementary Text. Biochemical assays utilize in vitro translation[58] and stringent response[15] systems from E. coli purified components. Experiments were performed in HEPES:Polymix[58] buffer with either 5 (for enzymatically assembled initiation complexes) or 15 mM (for vacant 70 S, as well as non-enzymatically assembled programmed ribosomes) Mg^2+. Expression and purification of E. faecalis RelQ was performed as per Gaca (2015) and colleagues. GTPase and ppGpp synthesis were followed using TLC separation and radiochemical detection of ^3H-labelled nucleotides. Multiple round in vitro transcription assays were performed as per Bernardo et al.[49] with minor modifications. Inhibition efficiency (IC50) was calculated using 4-parameter logistic model (Hill equation) as per Sebaugh[60].
RelQ activity0.4 RelQ activity0.4 RelQ activity0.4
Supplementary Figure 2 | Inhibition of E. faecalis SAS RelQ by DR-4250, DR-
M014 and DR-5163 is inefficient. The reaction mixture contains 0.25 µM RelQEf,
300 µM [3H] GDP, 0.5 mg/ml BSA, 100 µM ppGpp, 1 mM ATP in Hepes:Polymix at […]

[5] = target: T1, E. coli RelA; assay: Inhibition of [3H]GDP to [3H]ppGpp conversion by E. coli RelA activated by vacant 70S ribosomes and 100 μM ppGpp; format: biochemical; conditions: for IC50: 30 nM RelA, 0.5 μM vacant 70S, 100 μM ppGpp; for nHill (Hill coefficient of the titration fit): Supplementary Table 1, 4-parameter logistic model
Experimental: For the initial characterization of compounds, we followed the inhibition of [^3H] GDP conversion to [^3H] ppGpp catalyzed by E. coli RelA in a simplified system in which RelA’s activity was induced by vacant 70S ribosomes and 100 μM of ppGpp[15]. Unlabeled ppGpp was added to reaction mixtures in order to linearize the kinetics of [^3H] ppGpp synthesis due to an activating effect on the RelA enzyme. We used a targeted library of 69 nucleotides belonging to several structural classes: ‘true’ ppGpp analogues; Relacin and its derivatives; pyrrolidine, azetidine, piperidine and acyclic phosphonates. Chemical structures of tested compounds and titrations in the RelA:70S:ppGpp system are presented in Supplementary Table 1.
as §2, §1
Both EF-G GTPase reaction and ppGpp synthesis by RelA were followed by TLC analysis followed by scintillation counting according to Mechold and colleagues, with modifications1. Time points from the reaction mixtures (5 μl, see below for details) were quenched by addition 4 μl 70% formic acid supplemented with a cold nucleotide standard used for UV-shadowing (10 mM GDP and 10 mM GTP) and spotted on PEI-TLC plates (Macherey-Nagel). TLC was run in buffer, plates dried, cut into sections guided by UV-shadowing and 3H radioactivity was quantified by scintillation counting in Optisafe-3 (Fisher) scintillation cocktail on Perkin Elmer Tricarb 2810TR counter. Conversion of substrate to product was quantified as described in Shyp et al. (2012)2.
Enzymatic assays with E. coli RelA
Screening: all experiments were performed in HEPES:Polymix, Mg2+ of 5 mM, 37 […]
μM ppGpp was pre-incubated at 37° C for 2 min and then reaction started by addition of 1 mM ATP, time points (5 μl) taken, quenched with formic acid and analyzed by TLC. Inhibition efficiency (IC50) was calculated using 4-parameter logistic model (Hill equation) as per Sebaugh (2011)3. […]

[6] = target: T3, E. faecalis SAS RelQ (RelQEf); conditions: found earlier; cited from earlier work
[7] = tested on: T4, E. coli σ70-RNAP holoenzyme; assay: Multiple round in vitro transcription by σ70-RNAP (rrnB P1 and rna1 promoters); format: biochemical, Escherichia coli; conditions: concentrations up to 5 mM; regardless of presence or absence of 2 μM DksA and 100 μM ppGpp
T4 construct: purchased Epicentre
Experimental: Next, we tested their effects on RNAP. […] We used multiple round in vitro transcription driven from the rrnB P1, a well-characterized ppGpp/DksA inhibited promoter, as described earlier[49]. The assays were performed in the presence and absence of 2 μM DksA and/or 100 μM ppGpp (Fig. 5a).
Effect of inhibitors on rrnB P1 (−66 to +50) promoter transcription by RNAP. Graphs depicting inhibitor (0, 0.025, 0.05, 0.15, 0.4 and 0.6 mM) titrations performed at 30 °C in T-buffer with 0.5 nM template (σ^70-rrnB P1 promoter (pRLG6214)) and 5 nM σ^70-RNAP, in presence or absence of 100 μM ppGpp and/or 2 μM DksA. Error bars represent standard deviations of linear regression estimates, each experiment was performed at least three times.
The assays were performed as per Bernardo et al. (2006)4 with minor modifications. Reactions were carried out in T-buffer (50 mM Tris-HCl pH 7.5, 100 mM NaCl, 10 mM MgCl2, 1 mM dithiothreitol, 0.1 mM EDTA and 0.275 mg of BSA per ml) at 30°C. Inhibitors were titrated to final concentrations of 0, 0.025, 0.05, 0.15, 0.4 and 0.6 mM. E. coli s 70-RNAP holoenzyme (Epicentre, final concentration 5 nM) and template plasmid DNA containing s70-rrnB P1 promoter, (pRLG6214, final concentration 0.5 nM) was used for all experiments. Before initiation of transcription, E. coli s70-RNAP holoenzyme and T buffer were incubated at 30°C for 5 min. Above mix was added to predispensed mixture of inhibitor and the template plasmid DNA containing s70-rrnB P1 promoter (pRLG6214), incubated for further 20 min to initiate open complex formation. 2.5 µl of a mixture of ATP (ﬁnal concentration 0.5 mM), GTP and CTP (ﬁnal concentration 0.2 mM each), UTP (ﬁnal concentration 0.08 mM) and [a-32P]-UTP (5 µCi at > 3000 Ci/mmol, PerkinElmer) was added to initiate transcription by RNAP. After 7 min, 1 µl heparin (0.125 mg/ml ﬁnal concentration) was added to the reaction mixture to prevent re-initiation and further incubated for 5 min to allow completion of initiated transcripts. Transcription was terminated by addition of formamide loading buffer and samples were electrophoresed on a 7M urea-5% polyacrylamide gel and quantified by phosphorimaging.

[8] = tested on: Bacillus subtilis; set-up: method as in PMID 20483622; conditions: mM-range concentrations; cited from earlier work
[9] = tested on: transcription or translation in E. coli reconstituted systems; set-up: method as in PMID 7047215; conditions: cited from earlier work
[10] = target: 70S initiation complexes programmed with mRNA(MF) (E. coli) (UniProt P0AG67); assay: co-sedimentation; spin-down assay: 2 uM RelA, 1 uM 70S initiation complexes programmed with mRNA(MF), with or without 3 uM deacylated tRNA-Phe and 500 uM DR-4250 or DR-M014; 37 C for 15 min; 30% sucrose cushion, 70,000 r.p.m., 25 min, 12 C; pellets on 10% SDS-PAGE; the stoichiometry is told for the sample with A-site deacylated tRNA-Phe
[11] = 0.3 mM [3H]GDP, 1 mM ATP, read-out: IC50

Chain of Escherichia coli RelA (P0AG20 whole entry): as the sequence (P0AG20 whole entry) above

Molecule: Nc1nc2c(ncn2[C@H]2C[C@H](OP(=O)(O)CP(=O)(O)O)[C@@H](COP(=O)(O)CP(=O)(O)O)O2)c(=O)[nH]1 [(10), 2′-deoxyguanosine-3′-5′-di(methylene bisphosphonate)]
- IC50 [1]: ~1000 µM and 1000 µM

Molecule: Nc1nc2c(ncn2CCNC(=O)P(=O)(O)O)c(=O)[nH]1 [DR-5163]
- Effect on growth of ΔywaCΔyjbM B. subtilis (in words) [2]: did not affect bacterial growth; also recorded: does not affect the growth
- Inhibitory effect on EF-G GTPase activity (in words) ([3]; up to 1 mM): no inhibitory effect
- Effect on RelQEf activity (in words) [4]: inefficient; also recorded: almost inactive
- IC50 [5, 11]: 0.245 ± 0.039 mM
- IC50 ([5]; 5 mM Mg2+, 37 °C, no unit beside the value, titration axis in mM, read-out: IC50 (Supplementary Table 1, example titration)): 0.25 ± 0.05 mM
- nHill (Hill coefficient of the titration fit) [5]: 1.3 ± 0.26

Molecule: CC(C)C(=O)Nc1nc2c(ncn2[C@H]2C[C@H](OC(=O)NCC(=O)NCC(=O)O)[C@@H](COC(=O)NCC(=O)NCC(=O)O)O2)c(=O)[nH]1 [Relacin, reference compound]
- Sensitivity of RelQEf to Relacin (in words) [6]: virtually insensitive
- Effect on rrnB P1 transcription by RNAP (in words) [7]: mild inhibitory effect
- Inhibitory effect on EF-G GTPase activity (in words) ([3]; up to 5 mM): no inhibitory effect
- Biological effect on Bacillus subtilis (in words) [8]: has a biological effect
- IC50 [5, 11]: 0.84 ± 0.2 mM
- nHill (Hill coefficient of the titration fit) [5]: 1.8 ± 0.001

Molecule: Nc1ncnc2c1ncn2C1OC(COP(=O)(O)OP(=O)(O)O)C(OP(=O)(O)OP(=O)(O)O)C1O (stereo not shown) [ppApp]
- Inhibitory effect on EF-G GTPase activity (in words) ([3]; up to 100 μM): no inhibitory effect
- Inhibitory effect on transcription or translation (in words) [9]: does not have a pronounced inhibitory effect
- IC50 [5, 11]: 0.0245 ± 0.0035 mM
- nHill (Hill coefficient of the titration fit) [5]: 0.7 ± 0.1
- Activation of RelA's synthetic activity (in words) ([5]; ppGpp up to 100 μM, ppApp 50 µM-1 mM, thio-ppGpp 100 µM (Supplementary Figure 1)): do not activate; also recorded: neither ppApp nor 6-thio-ppGpp activate

- stoichiometry N [10]: 1
Molecule: Escherichia coli RelA (from UniProt P0AG20 1-744) (enzyme)
